Data: the NIST ThermoML archive (doi:10.1016/j.jct.2007.06.014)
Numbers after ± are expanded uncertainties.

Conditions: Liquid, Bellows volumetry

Question: With CCCC [butane] as the molecule, how does the mass density (380 K, 3000 kPa) read?
Answer: 463.27 ± 0.83 kg/m3

Question: What about the mass density (380 K, 5000 kPa) of the same molecule?
Answer: 474.65 ± 0.85 kg/m3

Question: And the mass density (380 K, 10000 kPa)?
Answer: 494.93 ± 0.89 kg/m3

Question: What about the mass density (380 K, 20000 kPa) of the same molecule?
Answer: 521.9 ± 0.94 kg/m3

Question: And the mass density (380 K, 40000 kPa)?
Answer: 555.85 ± 1 kg/m3

Question: And the mass density (380 K, 60000 kPa)?
Answer: 579.32 ± 1 kg/m3

Question: And the mass density (380 K, 80000 kPa)?
Answer: 597.57 ± 1.1 kg/m3

Question: And the mass density (380 K, 100000 kPa)?
Answer: 612.79 ± 1.1 kg/m3

Question: What about the mass density (380 K, 120000 kPa) of the same molecule?
Answer: 625.93 ± 1.1 kg/m3

Question: And the mass density (380 K, 140000 kPa)?
Answer: 637.29 ± 1.1 kg/m3

Question: And the mass density (380 K, 160000 kPa)?
Answer: 647.82 ± 1.2 kg/m3

Question: And the mass density (380 K, 180000 kPa)?
Answer: 657.28 ± 1.2 kg/m3

Question: What about the mass density (380 K, 200000 kPa) of the same molecule?
Answer: 665.98 ± 1.2 kg/m3

Question: And the mass density (400 K, 5000 kPa)?
Answer: 437.19 ± 0.79 kg/m3

Question: And the mass density (400 K, 10000 kPa)?
Answer: 466.97 ± 0.84 kg/m3

Question: And the mass density (400 K, 20000 kPa)?
Answer: 500.93 ± 0.9 kg/m3

Question: What about the mass density (400 K, 30000 kPa) of the same molecule?
Answer: 522.83 ± 0.94 kg/m3

Question: What about the mass density (400 K, 40000 kPa) of the same molecule?
Answer: 539.73 ± 0.97 kg/m3

Question: And the mass density (400 K, 50000 kPa)?
Answer: 553.54 ± 1 kg/m3

Question: What about the mass density (400 K, 60000 kPa) of the same molecule?
Answer: 565.44 ± 1 kg/m3

Question: What about the mass density (400 K, 70000 kPa) of the same molecule?
Answer: 575.77 ± 1 kg/m3

Question: What about the mass density (400 K, 80000 kPa) of the same molecule?
Answer: 585.08 ± 1.1 kg/m3

Question: What about the mass density (400 K, 90000 kPa) of the same molecule?
Answer: 593.33 ± 1.1 kg/m3

Question: And the mass density (400 K, 100000 kPa)?
Answer: 601.18 ± 1.1 kg/m3

Question: What about the mass density (400 K, 120000 kPa) of the same molecule?
Answer: 614.9 ± 1.1 kg/m3

Question: And the mass density (400 K, 140000 kPa)?
Answer: 627.05 ± 1.1 kg/m3

Question: What about the mass density (400 K, 160000 kPa) of the same molecule?
Answer: 637.77 ± 1.1 kg/m3

Question: And the mass density (400 K, 180000 kPa)?
Answer: 647.6 ± 1.2 kg/m3

Question: And the mass density (400 K, 200000 kPa)?
Answer: 656.49 ± 1.2 kg/m3

Question: What about the mass density (420 K, 10000 kPa) of the same molecule?
Answer: 436.16 ± 0.79 kg/m3

Question: What about the mass density (420 K, 20000 kPa) of the same molecule?
Answer: 479.15 ± 0.86 kg/m3

Question: And the mass density (420 K, 30000 kPa)?
Answer: 504.89 ± 0.91 kg/m3

Question: What about the mass density (420 K, 40000 kPa) of the same molecule?
Answer: 523.9 ± 0.94 kg/m3

Question: And the mass density (420 K, 50000 kPa)?
Answer: 539.08 ± 0.97 kg/m3

Question: What about the mass density (420 K, 60000 kPa) of the same molecule?
Answer: 551.8 ± 0.99 kg/m3

Question: And the mass density (420 K, 70000 kPa)?
Answer: 563.07 ± 1 kg/m3

Question: What about the mass density (420 K, 80000 kPa) of the same molecule?
Answer: 572.94 ± 1 kg/m3

Question: What about the mass density (420 K, 90000 kPa) of the same molecule?
Answer: 581.86 ± 1.1 kg/m3

Question: And the mass density (420 K, 100000 kPa)?
Answer: 589.89 ± 1.1 kg/m3

Question: What about the mass density (420 K, 120000 kPa) of the same molecule?
Answer: 604.27 ± 1.1 kg/m3

Question: What about the mass density (420 K, 140000 kPa) of the same molecule?
Answer: 617.11 ± 1.1 kg/m3

Question: And the mass density (420 K, 160000 kPa)?
Answer: 628.25 ± 1.1 kg/m3

Question: And the mass density (420 K, 180000 kPa)?
Answer: 638.65 ± 1.1 kg/m3

Question: And the mass density (420 K, 200000 kPa)?
Answer: 647.73 ± 1.2 kg/m3

Question: What about the mass density (440 K, 10000 kPa) of the same molecule?
Answer: 401.28 ± 0.72 kg/m3

Question: And the mass density (440 K, 20000 kPa)?
Answer: 457.43 ± 0.82 kg/m3

Question: And the mass density (440 K, 30000 kPa)?
Answer: 487.23 ± 0.88 kg/m3

Question: And the mass density (440 K, 40000 kPa)?
Answer: 508.57 ± 0.92 kg/m3

Question: What about the mass density (440 K, 50000 kPa) of the same molecule?
Answer: 525.26 ± 0.95 kg/m3

Question: What about the mass density (440 K, 60000 kPa) of the same molecule?
Answer: 539.13 ± 0.97 kg/m3

Question: What about the mass density (440 K, 70000 kPa) of the same molecule?
Answer: 551.03 ± 0.99 kg/m3

Question: What about the mass density (440 K, 80000 kPa) of the same molecule?
Answer: 561.56 ± 1 kg/m3

Question: What about the mass density (440 K, 90000 kPa) of the same molecule?
Answer: 571.14 ± 1 kg/m3

Question: What about the mass density (440 K, 100000 kPa) of the same molecule?
Answer: 579.66 ± 1 kg/m3

Question: What about the mass density (440 K, 120000 kPa) of the same molecule?
Answer: 594.85 ± 1.1 kg/m3

Question: What about the mass density (440 K, 140000 kPa) of the same molecule?
Answer: 608.04 ± 1.1 kg/m3

Question: And the mass density (440 K, 160000 kPa)?
Answer: 619.73 ± 1.1 kg/m3

Question: What about the mass density (440 K, 180000 kPa) of the same molecule?
Answer: 630.34 ± 1.1 kg/m3

Question: What about the mass density (440 K, 200000 kPa) of the same molecule?
Answer: 639.98 ± 1.1 kg/m3
